Measurements taken from ChEMBL document CHEMBL1143183, “New polyphenols active on beta-amyloid aggregation” (Bioorg Med Chem Lett, 2008).

Tests used:
[1] = Inhibition of beta amyloid 25-35 fibril formation
[2] = Inhibition of beta amyloid 25-35 fibril formation at 10 uM

`COc1ccc(O)c(OC)c1C(=O)OCc1ccccc1O[C@@H]1O[C@H](CO)[C@@H](O)[C@H](O)[C@H]1O` [CURCULIGOSIDE D] gave an EC50 [1] of 9.5 µM and an inhibition [2] of 49%.

With `COc1cc(-c2[o+]c3cc(O)cc(O)c3cc2O[C@@H]2O[C@H](CO)[C@@H](O)[C@H](O)[C@H]2O)cc(OC)c1O` [OENIN] the EC50 [1] was 10 µM and the inhibition [2] was 44%.

For `Oc1cc(O)c2cc(O)c(-c3cc(O)c(O)c(O)c3)[o+]c2c1`, the inhibition [2] was 26%.

`COc1cc(/C=C/c2ccc(O)cc2)cc(OC)c1` gave an inhibition [2] of 35%.

`Oc1cc(O)c2cc(O)c(-c3ccc(O)c(O)c3)[o+]c2c1` showed an inhibition [2] of 35%.

`Oc1ccc(/C=C/c2cc(O)cc(O)c2)cc1` [RESVERATROL] showed an EC50 [1] of 6 µM and an inhibition [2] of 63%.

Work on `O=C(O)/C=C/c1ccc(O)cc1` yielded an inhibition [2] of 17%.

For `COc1cc(-c2[o+]c3cc(O)cc(O)c3cc2O)cc(OC)c1O` [MALVIDIN], the EC50 [1] was 10 µM and the inhibition [2] was 46%.

`O=C(O[C@@H]1Cc2c(O)cc(O)cc2O[C@@H]1c1cc(O)c(O)c(O)c1)c1cc(O)c(O)c(O)c1` gave an inhibition [2] of 13%.

`OC[C@H]1O[C@@H](Oc2cc3c(O)cc(O)cc3[o+]c2-c2ccc(O)c(O)c2)[C@H](O)[C@@H](O)[C@@H]1O` gave an inhibition [2] of 31%.

With `Oc1cc(O)c2c(c1)O[C@H](c1cc(O)c(O)c(O)c1)[C@H](O)C2` the inhibition [2] was 18%.

`O=C(O)c1ccc(O)cc1` gave an inhibition [2] of 29%.

With `COc1cccc(OC)c1C(=O)OCc1cc(O)ccc1O[C@@H]1O[C@H](CO)[C@@H](O)[C@H](O)[C@H]1O` the inhibition [2] was 28%.

`COc1cccc(O)c1C(=O)OCc1cc(O)ccc1O[C@@H]1O[C@H](CO)[C@@H](O)[C@H](O)[C@H]1O` [CURCULIGOSIDE B] showed an EC50 [1] of 8.5 µM and an inhibition [2] of 53%.

`O=C(O[C@@H]1Cc2c(O)cc(O)cc2O[C@@H]1c1ccc(O)c(O)c1)c1cc(O)c(O)c(O)c1` showed an inhibition [2] of 13%.

Molecule `COc1cc(/C=C/C(=O)CC(=O)/C=C/c2ccc(O)c(OC)c2)ccc1O` [CURCUMIN] has an EC50 [1] of 10 µM and an inhibition [2] of 45%.

Molecule `O=C(O)/C=C/c1ccc(O)c(O)c1` has an inhibition [2] of 15%.
